Measured values taken from PMC10424242, “Macrocyclic Peptidomimetic Plasmepsin X Inhibitors with Potent In Vitro and In Vivo Antimalarial Activity” (Journal of Medicinal Chemistry, 2023).
“Also recorded” adds a separate entry of the source. Like-named read-outs stand apart in the source and are kept apart here.

Key:
P. falciparum schizonts = assay: Washout assay, schizont rupture and new ring formation; type: cell-based; conditions: 20 nM ∼44 h, […] with added RBCs
Procedure: The schizont cultures lacking added RBCs were supplemented with compound C2, which blocks the discharge of exonemes, the parasite secretory organelles in which PMX and SUB1 are stored before egress. The schizonts without added RBCs were sampled for Western blot analysis, while the schizont cultures containing RBCs were examined by microscopy and flow cytometry after a further 4 h in culture to quantify schizont rupture and new ring formation.
(§1) Synchronous parasite cultures were cultured from ring to schizont stage (∼44 h) in the presence of DMSO alone (0.04% v/v; control) or macrocycle compounds (20 nM final concentration). Schizonts were isolated by Percoll enrichment (still in the presence of the test compound), then either immediately frozen or further incubated in the absence of the drug but in the presence of C2 (1 μM) for 1 h at 37°C in the absence of added RBCs or for 3.5 h in the presence of added RBCs. The schizonts without added RBCs were then frozen too, and all schizont samples were then thawed into CHAPS–urea extraction buffer, subjected to sodium dodecyl sulfate-polyacrylamide gel electrophoresis (SDS-PAGE), and analyzed by Western blot, probing with antibodies against SUB1 or RAP1. For schizonts cultured in the presence of added RBCs, ring formation was assessed in two ways: cultures were examined microscopically by Giemsa stain of thin films and were also fixed with glutaraldehyde and processed for quantification of ring formation by flow cytometry as described above.

[1] = Tolerability testing in mice; type: in vivo, NMRI female mice; conditions: p.os 50 mg/kg up to 24 h, 0–6 score system
Procedure: NMRI female mice (10–12 weeks old, 29–32 g) were obtained from ENVIGO (The Netherlands) and housed prior to treatment under standard conditions (acclimatization period of 1 week, 21–23 °C, 12-h light/dark cycle, relative humidity 45–65%) with unlimited access to food (R70 diet from Lantmännen) and water. The experimental procedures were performed in accordance with the guidelines of the European Community and local laws and policies (Directive 2010/63/EU), and all of the procedures were approved by Food and Veterinary Service, Riga, Latvia. Animals were weighed on the day of the treatment (before treatment) to calculate the required amount of compound for the corresponding dose. For tolerability and PK studies, the mice were dosed via a peroral (PO) bolus administration (volume 10 mL/kg). Toxicity signs were scored 0–2, 5, 10, 15, 30, 60, 120, 240 min, and 24 h after administration using a widely used 0–6 score system.

cathepsin D (CatD) = cathepsin D (CatD) (Homo sapiens, UniProt P07339); assay: FRET-based CatD inhibition assay (selectivity counter screen); type: biochemical
Sequence of cathepsin D (CatD) (P07339 65-412): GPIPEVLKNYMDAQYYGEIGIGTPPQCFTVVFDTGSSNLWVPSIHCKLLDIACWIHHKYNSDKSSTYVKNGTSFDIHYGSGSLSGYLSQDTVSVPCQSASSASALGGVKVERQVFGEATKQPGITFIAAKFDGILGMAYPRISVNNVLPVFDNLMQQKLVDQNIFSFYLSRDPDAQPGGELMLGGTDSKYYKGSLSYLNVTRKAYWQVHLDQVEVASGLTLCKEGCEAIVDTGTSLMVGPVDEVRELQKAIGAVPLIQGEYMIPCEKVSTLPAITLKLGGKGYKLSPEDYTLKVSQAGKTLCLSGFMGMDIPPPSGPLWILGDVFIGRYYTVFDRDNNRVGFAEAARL
Procedure: A fluorescence resonance energy transfer (FRET)-based assay was performed to assess the ability of the compounds to inhibit PMIV, CatD, and BACE1. Serial dilutions of test compounds were dispensed in a white 96-well plate. […] The mixture was incubated for 20 min at 37 °C. […] IC50 values were calculated with GraphPad Prism 8.0 using the nonlinear regression, variable slope (four parameters). Compounds were tested in triplicate.

[2] = system: P. falciparum 3D7 parasites; assay: Microscopy of synchronized P. falciparum cultures treated from ring stage (development and egress); type: cell-based; conditions: 20 nM
Procedure: Asexual blood-stage forms of P. falciparum strains 3D7 and Dd2 were maintained at 37 °C in an atmosphere of 1% O2, 5% CO2, and 94% N2 in human RBCs in RPMI 1640 medium containing AlbuMAX II (Thermo Fisher Scientific) and supplemented with 2 mM L-glutamine. The synchronization of parasite cultures was as described previously.[39] Briefly, this involved isolating mature schizont forms by centrifugation over cushions of 70% (v/v) isotonic Percoll (GE Healthcare, Life Sciences) and then allowing the parasites to undergo rupture in the presence of fresh RBCs for 2 h under gentle shaking conditions (100 rpm). Residual schizonts were then removed through a second Percoll separation, followed by treatment with 5% (w/v) sorbitol to finally obtain a highly synchronized preparation of newly invaded ring-stage parasites.
Growth stage progression and parasite morphology were also monitored by microscopic examination at selected time points using Giemsa-stained thin blood films.

[3] = Liver microsomal metabolic stability; type: in vitro ADME, mouse
Procedure: Microsomal stability assays are performed as described elsewhere.[41] Test compounds and pooled mouse liver microsomes are incubated in potassium phosphate buffer in the presence of the cofactor NADPH at 37 °C. Reaction mixtures (700 μL) contain a final concentration of 5 μM test compound, 0.05% DMSO, 0.5 mg/mL microsomes, and ∼0.7–0.9 mM NADPH in 100 mM potassium phosphate buffer at pH 7.4. Reactions are terminated by the addition of 100 μL of the reaction mixture to 900 μL of acetonitrile after 0, 5, 15, 30, 45, and 60 min of incubation. Samples were centrifuged, and the resultant supernatant was analyzed by ultra-performance liquid chromatography–tandem mass spectrometry (UPLC-MS/MS). The amount of remaining compound is calculated and compared to the initial amount of test compound (zero time point). Verapamil is used as a positive control, and samples prepared without cofactor NADPH are used as a negative control (0 and 60 min). The in vitro metabolic stability parameters (half-life value (t1/2) and intrinsic clearance value (Clint)) are calculated from the slope of the Ln of concentration remaining vs the time curve.

[4] = system: maturation of the PMX substrate SUB1 (p54 to p47); assay: Western blot of SUB1 maturation in treated schizonts; type: cell-based, P. falciparum; conditions: 20 nM, 44 h
Procedure: This phenotype is characteristic of the inhibition of PMX.
as §1

[5] = system: P. falciparum Pf3D7^0087/N9; assay: In vivo efficacy against P. falciparum in the TAD PfalcHuMouse model
Procedure: Therapeutic efficacy studies were performed at TAD using a standardized humanized mouse model of P. falciparum malaria[31] with modifications.[34] […] The volume of injections was 1 and 0.7 mL for i.p. or i.v. inoculation, respectively.
The inoculum was obtained from peripheral blood of CO2-euthanized donor mice harboring 5–10% parasitemia.
Before drug administration, each infected mouse was randomly assigned to its corresponding treatment. […] The treatment was administered by oral gavage with 20G straight reusable feeding needles (Fine Science Tools GmbH) at 10 mL·kgbodyweight^–1 unless otherwise stated.
Parasitemia was measured in serial 2 μL of samples of tail blood by flow cytometry and expressed as the % of parasitized erythrocytes with respect to the total erythrocytes in circulation.
The clearance of parasitized erythrocytes from the peripheral blood of mice was assessed by measuring the parasite reduction ratio (PRR) calculated as the ratio between parasitemia at Day n + 2 divided by parasitemia at Day n for each individual of the study.
The parasiticidal effect of drugs in vivo was assessed by measuring the day of recrudescence (DoR) as described.[34] In short, DoR was defined as the day at which parasitemia after drug treatment reached the % parasitemia at treatment inception. Drug-treated mice were deemed cured if there was no detectable parasitemia 60 days after treatment.

[6] = target: recombinant P. falciparum PMX (Plasmodium falciparum, UniProt Q8IAS0); assay: Recombinant P. falciparum PMX inhibition assay (fluorogenic substrate Rh2N); type: biochemical
Sequence of recombinant P. falciparum PMX (Q8IAS0 222-573): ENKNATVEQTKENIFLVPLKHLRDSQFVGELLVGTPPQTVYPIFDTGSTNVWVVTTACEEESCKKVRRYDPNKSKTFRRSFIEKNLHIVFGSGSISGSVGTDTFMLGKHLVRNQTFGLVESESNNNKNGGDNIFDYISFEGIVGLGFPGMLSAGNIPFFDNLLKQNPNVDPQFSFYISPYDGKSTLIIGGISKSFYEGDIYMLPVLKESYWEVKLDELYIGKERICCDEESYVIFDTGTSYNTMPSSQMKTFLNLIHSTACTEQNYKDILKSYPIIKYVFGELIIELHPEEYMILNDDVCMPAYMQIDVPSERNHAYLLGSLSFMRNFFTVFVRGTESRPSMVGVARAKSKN
Procedure: The fluorescence of this peptide is quenched by the spatial proximity of the DABCYL/EDANS groups in the uncleaved peptide and is increased upon cleavage at the internal F–I bond. […] Control wells contained no inhibitor, and the plate was blanked against the substrate only in DB. […] All experiments were performed in duplicate.

CCCN1CCCCCc2cccc(c2)C[C@@H]([C@H](O)CNC(C)(C)c2cccc(OC)c2)NC(=O)c2cccc(c2)C1=O [7k, (S)-4-((R)-1-Hydroxy-2-((2-(3-methoxyphenyl)propan-2-yl)amino)ethyl)-12-propyl-3,12-diaza-1,6(1,3)-dibenzenacyclotridecaphane-2,13-dione]
new ring formation after washout (P. falciparum schizonts): minimal rings were produced
tolerability [1]: No adverse effects were observed; also recorded: no toxic effect (score 0)
IC50 (cathepsin D (CatD)): 330 ± 20 nM
intraerythrocytic development of ring-stage parasites to schizont stage ([2]; 44 h): Development of ring-stage parasites to the multinucleated schizont stage occurred similarly in all cultures
schizont rupture (egress) and appearance of new rings ([2]; 44 h and extended incubation): schizont rupture and appearance of new rings did not occur
improvement of half-life in the microsomal stability test ([3]; compared to the acyclic analogue 6a): 3 fold
half-life at 1 h, 5 μM ([3]; pooled liver microsomes, pH 7.4, mouse liver microsomes, 5 μM): 16.9 min
microsomal CLint at 1 h, 5 μM ([3]; pooled liver microsomes, pH 7.4, mouse liver microsomes, 5 μM, read-out: microsomal stability CL(int)): 81.9 µL/min/mg
maturation of SUB1 (p54 to p47) [4]: clear defect in maturation of the PMX substrate SUB1
clearance of parasitemia from peripheral blood ([5]; 40 mg/kg p.o., UID, BID or TID): cleared parasitemia from the peripheral blood in a dose-dependent manner
parasite clearance rate compared with chloroquine ([5]; chloroquine at 10 mg/kg for 2 days in the same system): comparable to those produced by chloroquine at 10 mg/kg for 2 days
parasite killing in vivo (DoR versus exposure) compared with chloroquine ([5]; comparable treatment regimens, chloroquine historical data): as potent as chloroquine
distribution of parasite stages in peripheral blood ([5]; day 3 of the assay, flow cytometry and microscopy): relative accumulation of circulating mature schizonts compared to untreated controls
effect on parasite burden ([5]; three times a day for 4 days at 40 mg/kg, oral): eliminated P. falciparum from peripheral blood at a rate comparable to chloroquine single-dose administration for 2 days (10 mg/kg)
IC50 ([6]; Table 3, read-out: PMX, nM (as listed in Table 3)): 0.4 ± 0.03 nM
improvement of PMX inhibitory potency ([6]; compared to 7a): 10 fold
IC50 ([6]; recombinant PMX, read-out: PMX, nM (IC50)): 0.4 ± 0.03 nM
